Test system: HCV replicon
Experiment: Replicon based assay of HCV replication inhibition (NPT ELISA)
Format: cell-based, Hepatitis C virus
Details: Hepatitis C virus, replicon based assay of HCV replication inhibition; Table IV; read-out: Activity
Method in brief: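 Huh-7 cells carrying a bicistronic HCV replicon (neo, EMCV-IRES-driven NS3–NS5B) treated overnight after seeding with usually 6 concentrations, 10 to 0.03 micromolar, for three days at 37° C without G418. Replication read as NPT level by captured ELISA; matched-DMSO wells and interferon alpha as controls.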

Row | SMILES | EC50 [nM]
1 | CCCCCCCCOc1ccc(Nc2nc(-c3cccnc3)c(C)s2)cc1C(F)(F)F [compound 836, N-(3-(trifluoromethyl)-4-(octyloxy)phenyl)-5-methyl-4-(pyridin-3-yl)thiazol-2-amine] | < 1000
2 | Cc1sc(Nc2ccc(OCCCC3CCCC3)c(C(F)(F)F)c2)nc1-c1cccnc1 [compound 837, N-(4-(3-cyclopentylpropoxy)-3-(trifluoromethyl)phenyl)-5-methyl-4-(pyridin-3-yl)thiazol-2-amine] | < 1000
3 | Cc1sc(Nc2ccc(OCCCCc3ccccc3)c(C(F)(F)F)c2)nc1-c1cccnc1 [compound 838, N-(4-(4-phenylbutoxy)-3-(trifluoromethyl)phenyl)-5-methyl-4-(pyridin-3-yl)thiazol-2-amine] | < 1000
4 | Cc1sc(Nc2ccc(OCCCc3ccccc3)c(C(F)(F)F)c2)nc1-c1cccnc1 [compound 839, N-(4-(3-phenylpropoxy)-3-(trifluoromethyl)phenyl)-5-methyl-4-(pyridin-3-yl)thiazo1-2-amine] | < 1000
5 | CCCCCCCCOc1ccc(Nc2nc(-c3cnc(O)nc3)cs2)cc1C(F)(F)F [compound 840, 5-(2-(3-(trifluoromethyl)-4-(octyloxy)phenylamino)thiazol-4-yl)pyrimidin-2-ol] | < 1000
6 | CCCCCCCCOc1ccc(Nc2nc(-c3ccc(OC)nn3)cs2)cc1C(F)(F)F [compound 841, N-(3-(trifluoromethyl)-4-(octyloxy)phenyl)-4-(6-methoxypyridazin-3-yl)thiazol-2-amine] | < 1000
7 | CCCCCCCCOc1ccc(Nc2nc(-c3cnc(Cl)c(C)c3)cs2)cc1C(F)(F)F [compound 842, 4-(6-chloro-5-methylpyridin-3-yl)-N-(3-(trifluoromethyl)-4-(octyloxy)phenyl)thiazol-2-amine] | < 1000
8 | CCCCCCCCOc1ccc(Nc2nc(-c3ccc(CNC(=O)OC(C)(C)C)nc3)cs2)cc1C(F)(F)F [compound 843, tert-butyl (5-(2-(3-(trifluoromethyl)-4-(octyloxy)phenylamino)thiazol-4-yl)pyridin-2-yl)methylcarbamate] | < 1000
9 | CCCCCCCCOc1ccc(Nc2nc(-c3ccc(CN)nc3)cs2)cc1C(F)(F)F [compound 844, 4-(6-(aminomethyl)pyridin-3-yl)-N-(3-(trifluoromethyl)-4-(octyloxy)phenyl)thiazol-2-amine] | < 1000
10 | Cc1ccc(CCCCOc2ccc(Nc3nc(-c4cccnc4)c(C)s3)cc2C(F)(F)F)cc1 [compound 845, N-(4-(4-p-tolylbutoxy)-3-(trifluoromethyl)phenyl)-5-methyl-4-(pyridin-3-yl)thiazol-2-amine] | < 1000
11 | Cc1sc(Nc2ccc(OCCCc3cccnc3)c(C(F)(F)F)c2)nc1-c1cccnc1 [compound 846, N-(4-(3-(pyridin-3-yl)propoxy)-3-(trifluoromethyl)phenyl)-5-methyl-4-(pyridin-3-yl)thiazol-2-amine] | > 10000
12 | CCN(CCOc1ccc(Nc2nc(-c3cccnc3)cs2)cc1C(F)(F)F)c1ccccc1 [compound 847] | < 1000
13 | FC(F)(F)c1cc(Nc2nc(-c3cccnc3)cs2)ccc1OCCOc1ccccc1 [compound 848, N-(4-(2-phenoxyethoxy)-3-(trifluoromethyl)phenyl)-4-(pyridin-3-yl)thiazol-2-amine] | < 1000
14 | CCCCCCCCOc1ccc(Nc2nc(-c3ccc(CC(=O)O)s3)cs2)cc1C(F)(F)F [compound 849, 2-(5-(2-(3-(trifluoromethyl)-4-(octyloxy)phenylamino)thiazol-4-yl)thiophen-2-yl)acetic acid] | < 1000
15 | O=C(O)Cc1ccc(-c2csc(Nc3ccc(OCCCC4CCCC4)c(C(F)(F)F)c3)n2)s1 [compound 850, 2-(5-(2-(4-(3-cyclopentylpropoxy)-3-(trifluoromethyl)phenylamino)thiazol-4-yl)thiophen-2-yl)acetic acid] | < 1000

Reference: patent publication US8088806B2 (Achillion Pharmaceuticals, Inc., priority 2005, dated 2012)
